Among the data in the SangsterLogP compilation are logP values, retold here.

One data set can be described thus: method code SF-RC, from DOI: 10.1021/jf00107a040.
For `CNC(=O)ON=CC(C)(C)S(C)(=O)=O`, the logP is -0.57.

A short description of the next data set: method code SF-GLC, from DOI: 10.1021/jf00107a040.
As for `NC(=O)Nc1ccccc1Cl`, the logP was found to be 1.27.
The same measure, in the same setting: with `NC(=O)Nc1cccc(Cl)c1` the figure was 1.82.
Consider `NC(=O)Nc1cccc(F)c1`, for which the logP turned out to be 1.29.
On the same count and under the same terms, with `NC(=O)Nc1ccccc1F` the figure was 0.88; with `NC(=O)Nc1cccc(C(F)(F)F)c1`, 2.31.
In turn, `COC(=O)Nc1ccc(Cl)c(Cl)c1` had a log partition coefficient (logP) of 3.09.
Consider `COc1ccc(N)cc1Cl`, for which the logP is 1.85.
With `NC(=O)Nc1ccc(Br)cc1`, the logP was found to be 1.98.
`NC(=O)Nc1cccc(Br)c1` registered a logP of 2.08.
The same measure, in the same setting: under `NC(=O)Nc1ccc(Cl)c(Cl)c1` stands 2.64.
The same measure, in the same setting: with `NC(=O)Nc1ccc(F)cc1` the figure was 1.04.
With `CNC(=O)Nc1ccc(Cl)c(Cl)c1`, the logP stood at 2.94.

The nature of the next data set: method code SF-AS, from DOI: 10.1021/jf00107a040.
Regarding `COc1ccc(NC(=O)N(C)C)cc1`, the logP amounted to 0.83.
Take `CC(=O)Nc1cccc(Cl)c1`: the logP turned out to be 2.02.
As for `CN(C)C(=O)Nc1cccc(F)c1`, the logP was 1.37.
The molecule `Cc1cc(NC(N)=O)ccc1F` registered a log partition coefficient (logP) of 1.59.
For the molecule `CC(C)OC(=O)Nc1ccccc1`, the lipophilicity (logP) stood at 2.6.
Same read-out and setting: with `CC(=O)Nc1cccc(F)c1` the figure was 1.46; with `CNC(=O)Nc1cccc(Cl)c1`, 2.18.
On the same count and under the same terms, under `CCCCOC(=O)Nc1ccccc1` stands 3.3.
Same read-out and setting: under `CON(C)C(=O)Nc1ccc(Br)c(Cl)c1` stands 3.09; under `COc1ccc(NC(=O)N(C)C)cc1Cl`, 1.64; under `O=C(Nc1ccccc1)NC1CCCC1`, 2.65.
`CCCCCOC(=O)Nc1ccccc1` displayed a logP of 3.8.
Regarding `Cc1cc(N)ccc1Br`, the lipophilicity (logP) amounted to 2.53.
The molecule `O=C(Nc1ccccc1)NC1CCCCCC1` gave a logP of 2.95.
The molecule `CC(=O)Nc1ccc(Br)cc1` yielded a logP of 2.14.
The molecule `Cc1ccc(NC(=O)N(C)C)cc1Cl` gave a logP of 2.41.
Molecule `CC(=O)Nc1cccc(C)c1` displayed a logP of 1.52.
Consider `Cc1cc(C)cc(NC(=O)N(C)C)c1`, for which the logP stood at 1.9.
On the same count and under the same terms, under `CN(C)C(=O)Nc1cccc(C(F)(F)F)c1` stands 2.42.
In turn, `CN(C)C(=O)Nc1cccc(Cl)c1` registered a logP of 2.01.
Molecule `Cc1ccc(NC(=O)N(C)C)cc1` returned a logP of 1.33.
The same measure, in the same setting: with `CNC(=O)Nc1ccc(OC)c(Cl)c1` the figure was 1.76.
For the molecule `COc1ccc(NC(N)=O)cc1Cl`, the log partition coefficient (logP) was 1.37.
`COc1cccc(NC(=O)N(C)C)c1` returned a logP of 1.73.
Consider `O=[N+]([O-])c1ccc(Br)cc1`, for which the logP turned out to be 2.6.
On the same count and under the same terms, with `CNC(=O)Nc1ccc(C)c(Cl)c1` the figure was 2.61; with `CCOC(=O)Nc1ccccc1`, 2.26; with `CC(=O)Nc1cccc(C(F)(F)F)c1`, 2.2.
As to `O=C(Nc1ccccc1)NC1CC1`, the lipophilicity (logP) is 1.65.
The same measure, in the same setting: under `O=C(Nc1ccccc1)NC1CCCCC1` stands 2.77; under `NC(=O)Nc1ccc(Oc2ccccc2)cc1`, 2.8.
On the same count and under the same terms, with `Cc1cccc(NC(N)=O)c1` the figure was 1.29; with `COc1ccc(NC(C)=O)cc1Cl`, 1.82; with `Cc1cc(NC(=O)N(C)C)cc(C)c1Br`, 2.92.
On the same count and under the same terms, under `Cc1cc(NC(N)=O)ccc1Br` stands 2.49; under `CNC(=O)Nc1ccccc1`, 1.17; under `CN(C)C(=O)Nc1ccc(F)cc1`, 1.13.
The molecule `CCCOC(=O)Nc1ccccc1` came in with a logP of 2.8.
Regarding `CC(=O)Nc1cccc(Br)c1`, the log partition coefficient (logP) is 2.04.

Usually logP stands for a log measure of how a compound divides between an organic and an aqueous phase.
